Data as given in ChEMBL document CHEMBL1201862, “PubChem BioAssay data set” (2004).
Values joined by “and” are separate entries in the source; they are usually repeats but may differ in a detail not shown here. Equal values may be shown once. Active and inactive are the calls of the source.

Experiments:
[1] = target: T1, Rac GTPase-activating protein 1 (Homo sapiens, UniProt Q9H0H5); experiment: MgcRacGAP GTPase-activating activity inhibitors, confirmation, biochemical, ADP Hunter fluorescence, primary and confirmatory (AID 624330); type: functional
T1 sequence (Q9H0H5 whole entry): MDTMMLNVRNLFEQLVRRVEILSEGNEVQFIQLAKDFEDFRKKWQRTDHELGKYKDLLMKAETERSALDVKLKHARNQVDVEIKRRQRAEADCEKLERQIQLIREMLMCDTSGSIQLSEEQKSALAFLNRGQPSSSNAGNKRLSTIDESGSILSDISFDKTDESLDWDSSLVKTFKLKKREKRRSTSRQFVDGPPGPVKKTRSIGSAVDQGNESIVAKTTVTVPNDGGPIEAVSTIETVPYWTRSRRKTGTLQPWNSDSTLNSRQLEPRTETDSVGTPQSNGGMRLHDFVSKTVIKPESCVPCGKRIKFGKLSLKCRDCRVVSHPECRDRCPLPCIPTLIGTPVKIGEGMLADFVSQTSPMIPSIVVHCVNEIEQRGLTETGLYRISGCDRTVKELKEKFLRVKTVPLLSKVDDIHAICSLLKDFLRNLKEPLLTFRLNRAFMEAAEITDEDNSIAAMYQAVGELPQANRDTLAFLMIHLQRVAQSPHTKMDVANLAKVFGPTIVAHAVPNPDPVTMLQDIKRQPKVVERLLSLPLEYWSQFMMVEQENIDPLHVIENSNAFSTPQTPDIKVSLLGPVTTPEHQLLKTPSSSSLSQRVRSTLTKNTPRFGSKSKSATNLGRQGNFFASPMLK

[2] = Luminescence Cell-Based Dose Response HTS to Identify Inhibitors of 5'UTR Stem-Loop Driven Prion Protein mRNA Translation in H4 Neuroglioblastoma Cells. [Related pubchem assays: 1827 (Project Summary), 1813 (Primary HTS)]; type: functional
[3] = inhibitors of firefly luciferase expression or activity, dose response, H4 neuroglioma cells, luminescence (AID 1990); type: functional, cell-based
[4] = inhibitors of SNCA 5'UTR-driven reporter translation, confirmation, H4 neuroglioma cells, luminescence (AID 1988); type: functional, cell-based
[5] = target: Cytochrome P450 3A4 (Homo sapiens, UniProt P08684);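 also: CYP3A4 tested as one member of a cytochrome P450 panel screen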
[6] = test system: INS1; experiment: beta cell apoptosis inhibitors, cytokine rescue, dose response, luminescence, retest (AID 449756); type: functional, cell-based; conditions: Rattus norvegicus;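 also: cell death triggered by IL-1 beta plus TNF-alpha plus IFN-gamma mixture; protective hits raise ATP signal compared with cytokine alone wells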
[7] = target: Cytochrome P450 2C19 (Homo sapiens, UniProt P33261); experiment: Cytochrome panel assay with activity outcomes. Panel member name: p450-cyp2c19 Compounds with AC50 equal or less than 10 uM are considered active; type: functional
[8] = target: Cytochrome P450 2C9 (Homo sapiens, UniProt P11712)
[9] = Luminescence Cell-Based Dose Response HTS to Identify Activators of Luciferase Translation or Activity in H4 […] Cells. [Related pubchem assays: 1829 (Project Summary), 1814 (Primary HTS)]; type: functional
[10] = Luminescence Cell-Based Dose Confirmation HTS to Identify Activators of 5'UTR Stem-Loop Driven Alpha-Synuclein mRNA Translation in H4 Neuroglioblastoma Cells. [Related pubchem assays: 1829 (Project Summary), 1814 (Primary HTS)]; type: functional
[11] = test system: H4; experiment: Luminescence Cell-Based Dose Response HTS to Identify Activators of 5'UTR Stem-Loop Driven Prion Protein mRNA Translation in H4 Neuroglioblastoma Cells. [Related pubchem assays: 1829 (Project Summary), 1814 (Primary HTS)]; type: functional; conditions: Homo sapiens
[12] = target: Cytochrome P450 2D6 (Homo sapiens, UniProt P10635);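 also: CYP2D6 member of a cytochrome P450 panel assay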
[13] = target: T2, Cytochrome P450 1A2 (Homo sapiens, UniProt P05177);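 also: PubChem cytochrome P450 panel assay, CYP1A2 panel member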
T2 sequence (P05177 whole entry): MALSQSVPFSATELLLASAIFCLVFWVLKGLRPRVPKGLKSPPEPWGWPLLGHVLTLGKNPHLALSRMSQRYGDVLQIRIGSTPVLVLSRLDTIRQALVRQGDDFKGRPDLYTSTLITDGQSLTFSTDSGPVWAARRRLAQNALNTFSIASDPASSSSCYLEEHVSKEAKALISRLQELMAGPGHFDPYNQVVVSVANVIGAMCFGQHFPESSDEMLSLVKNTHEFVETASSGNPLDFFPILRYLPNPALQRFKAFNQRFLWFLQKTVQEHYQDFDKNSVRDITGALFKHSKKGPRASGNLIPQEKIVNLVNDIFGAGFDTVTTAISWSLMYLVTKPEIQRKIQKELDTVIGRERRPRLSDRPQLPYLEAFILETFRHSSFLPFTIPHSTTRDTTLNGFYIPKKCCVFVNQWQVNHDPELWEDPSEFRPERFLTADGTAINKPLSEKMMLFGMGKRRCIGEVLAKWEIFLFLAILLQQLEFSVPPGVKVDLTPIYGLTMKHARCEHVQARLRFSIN

Chain of Cytochrome P450 2C19 (P33261 whole entry): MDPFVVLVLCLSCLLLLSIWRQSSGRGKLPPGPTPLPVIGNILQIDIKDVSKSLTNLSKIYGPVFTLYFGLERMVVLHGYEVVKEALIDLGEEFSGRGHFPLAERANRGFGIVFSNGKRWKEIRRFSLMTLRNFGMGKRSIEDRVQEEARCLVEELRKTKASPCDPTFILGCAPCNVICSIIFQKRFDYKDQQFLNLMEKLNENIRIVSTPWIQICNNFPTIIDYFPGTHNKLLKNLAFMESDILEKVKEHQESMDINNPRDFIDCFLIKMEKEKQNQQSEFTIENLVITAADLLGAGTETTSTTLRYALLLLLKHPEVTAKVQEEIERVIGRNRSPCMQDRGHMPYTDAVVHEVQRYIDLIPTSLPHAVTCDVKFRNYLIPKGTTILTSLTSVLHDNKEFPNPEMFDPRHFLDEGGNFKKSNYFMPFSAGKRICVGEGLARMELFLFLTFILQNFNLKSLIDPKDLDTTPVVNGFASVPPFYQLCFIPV
Chain of Cytochrome P450 3A4 (P08684 whole entry): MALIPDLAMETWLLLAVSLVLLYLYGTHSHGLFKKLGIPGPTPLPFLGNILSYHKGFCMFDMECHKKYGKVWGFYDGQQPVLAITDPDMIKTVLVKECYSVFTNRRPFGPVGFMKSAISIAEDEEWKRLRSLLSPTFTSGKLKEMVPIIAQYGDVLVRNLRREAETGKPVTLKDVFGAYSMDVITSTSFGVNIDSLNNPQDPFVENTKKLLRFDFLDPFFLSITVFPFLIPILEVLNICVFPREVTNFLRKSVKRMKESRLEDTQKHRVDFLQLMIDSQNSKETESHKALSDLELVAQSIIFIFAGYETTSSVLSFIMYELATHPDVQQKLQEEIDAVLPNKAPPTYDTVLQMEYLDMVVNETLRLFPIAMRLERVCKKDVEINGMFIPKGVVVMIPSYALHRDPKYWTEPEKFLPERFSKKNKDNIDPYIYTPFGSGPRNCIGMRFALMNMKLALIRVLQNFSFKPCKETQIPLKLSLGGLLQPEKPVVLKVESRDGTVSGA
Chain of Cytochrome P450 2C9 (P11712 whole entry): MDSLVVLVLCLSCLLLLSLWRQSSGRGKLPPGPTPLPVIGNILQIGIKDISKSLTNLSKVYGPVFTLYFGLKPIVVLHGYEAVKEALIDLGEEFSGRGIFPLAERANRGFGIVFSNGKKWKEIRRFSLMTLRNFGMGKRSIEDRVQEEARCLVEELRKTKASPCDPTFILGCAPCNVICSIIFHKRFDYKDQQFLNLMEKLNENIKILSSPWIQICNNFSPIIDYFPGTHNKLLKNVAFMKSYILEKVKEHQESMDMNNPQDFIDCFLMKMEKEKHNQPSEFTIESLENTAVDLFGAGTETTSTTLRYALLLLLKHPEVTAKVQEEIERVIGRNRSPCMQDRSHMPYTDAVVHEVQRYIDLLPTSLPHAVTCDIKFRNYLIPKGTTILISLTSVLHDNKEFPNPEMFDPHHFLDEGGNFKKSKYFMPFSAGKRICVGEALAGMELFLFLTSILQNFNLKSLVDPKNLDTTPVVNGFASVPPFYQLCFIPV
Chain of Cytochrome P450 2D6 (P10635 whole entry): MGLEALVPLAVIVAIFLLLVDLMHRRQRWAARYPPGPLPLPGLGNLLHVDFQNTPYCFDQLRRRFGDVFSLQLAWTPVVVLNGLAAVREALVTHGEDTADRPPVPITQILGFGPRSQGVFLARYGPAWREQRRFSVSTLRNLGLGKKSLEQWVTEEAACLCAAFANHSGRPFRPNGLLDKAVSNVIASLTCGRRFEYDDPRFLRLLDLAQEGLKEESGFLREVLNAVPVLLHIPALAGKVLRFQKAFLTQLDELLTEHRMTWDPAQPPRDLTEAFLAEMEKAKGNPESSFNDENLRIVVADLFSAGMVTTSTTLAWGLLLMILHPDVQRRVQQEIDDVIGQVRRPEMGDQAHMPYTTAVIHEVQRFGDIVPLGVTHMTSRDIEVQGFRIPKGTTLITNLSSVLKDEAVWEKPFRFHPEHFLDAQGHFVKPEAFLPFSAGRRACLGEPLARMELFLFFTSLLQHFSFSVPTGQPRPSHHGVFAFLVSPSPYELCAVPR

For `CN(C)c1cc(NC(=O)CN2CCCC2)c2ccccc2n1`, the IC50 [1] was 41.6 µM (active).

For `Cc1ccc(S(=O)(=O)N2CCC(=O)N(C(COCc3ccc(Cl)cc3)Cc3ccccc3)CC2)cc1` (centres undefined), the EC50 [2] was 39.1 µM (active), the EC50 [3] was > 120 µM (not active) and the EC50 [4] was 36.4 µM (active).

With `COc1cc(C(C)=NNC(=O)c2ccncc2)ccc1O` the IC50 [1] was 49.6 µM (active).

For `C=CCc1cc(C=O)cc(OC)c1OCc1ccc(Cl)cc1`, the AC50 [5] was 17.8 µM (inconclusive).

For `CC(=O)N1CCC2(CCCN(C(=O)Nc3cccc(F)c3)C2)CC1`, the AC50 [5] was 31.6 µM (inconclusive).

For `CSC1=N/C(=C\c2ccc(C)cc2)C(=O)S1`, the AC50 [5] was 39.8 µM (inconclusive).

For `CN(C)c1cc[n+](CC(=O)Nc2ccc(Oc3ccccc3)cc2)cc1`, the EC50 [2] was > 120 µM (not active), the AC50 [6] was 4.17 µM (active) and the EC50 [3] was 17.1 µM (active). For the same compound, the EC50 [4] was 14.9 µM (active).

In the case of `CCCn1nc(Oc2nc(NCC)nc(NC(C)C)n2)ccc1=O`, the AC50 [5] was 0.00562 µM (inconclusive) and the AC50 ([7]; read-out: AC50) was 39.8 µM (inconclusive).

With `COc1ccc(-c2cn(CCO)nc2-c2ccc(OC)cc2)cc1` the EC50 [2] was > 120 µM (not active), the EC50 [3] was 16.1 µM (active) and the EC50 [4] was > 120 µM (not active).

In the case of `O=C1[C@@H]2C=CC=CC2=NC(=S)N1CCN1CCC(=C(c2ccc(F)cc2)c2ccc(F)cc2)CC1`, the AC50 [5] was 3.16 µM (inconclusive) and the AC50 ([7]; read-out: AC50) was 10 µM (inconclusive).

With `O=C(Nc1ccccc1[N+](=O)[O-])C1C(c2ccccc2)=C1c1ccccc1` the AC50 [5] was 20 µM (inconclusive).

With `CCOC(=O)/C(C#N)=C\c1ccc(OCC(=O)Nc2ccc(C)cc2C)c(OC)c1` the AC50 [5] was 10 µM (inconclusive) and the AC50 [8] was 25.1 µM (inconclusive).

With `CC(C)[C@@H](OCc1ccccc1)[C@H](C)/C=N\O[C@@H](C)c1cn([C@H](CO)Cc2ccccc2)nn1` the AC50 [5] was 3.16 µM (inconclusive) and 3.98 µM (inconclusive).

For `CN(C)c1ccc(/C=N/O)cc1`, the IC50 [1] was 21.8 µM (active).

With `O=C(NCCC[N+]1=CC=N[C@H]1c1ccccc1)N1CCCc2nc(-c3ccc(Br)cc3)ccc21` the AC50 [5] was 3.16 µM (inconclusive).

With `CCc1nnc(NC(=O)c2ccc(S(=O)(=O)NC3CCCCC3)cc2)s1` the EC50 [2] was > 120 µM (not active), the EC50 [3] was > 120 µM (not active) and the EC50 [4] was > 120 µM (not active).

For `O=C(Cn1cc(SCc2ccccc2Cl)c2ccccc21)N1CCOCC1`, the EC50 [9] was 8.21 µM (active), the EC50 [10] was 23.8 µM (active) and the EC50 [11] was 21 µM (active).

With `Cc1cc(C)c(NC=C2C(=O)NC(=O)NC2=O)c(C)c1` the EC50 [2] was > 60 µM (not active) and the EC50 [4] was > 120 µM (not active).

With `N[N-][C+]1c2ccccc2N[C@H]1OC(=O)Nc1cccc(Cl)c1` the AC50 [5] was 5.01 µM (inconclusive), the AC50 [12] was 3.98 µM (inconclusive) and the AC50 ([7]; read-out: AC50) was 3.16 µM (inconclusive).

In the case of `Cc1noc(C)c1-c1cc(NCc2cccs2)ncn1`, the AC50 [5] was 31.6 µM (inconclusive), the AC50 [12] was 20 µM (inconclusive) and the AC50 [7] was “inconclusive”.

With `CCCCn1c(=N)n(CC(=O)c2ccco2)c2ccccc21` the AC50 [5] was 31.6 µM (inconclusive) and the AC50 ([7]; read-out: AC50) was 15.8 µM (inconclusive).

In the case of `O=C(NCCCN1CCOCC1)c1cc2c(s1)CSC2`, the AC50 [5] was 15.8 µM (inconclusive).

In the case of `[O-][n+]1c2c([n+]([O-])c3cc(N4CCCC4)c(F)cc31)CCCC2`, the EC50 [9] was 20.3 µM (active), the EC50 [10] was > 60 µM (not active) and the EC50 [11] was 7.53 µM (active).

In the case of `C/C(=N/NC(=O)C1CCN(S(=O)(=O)c2ccc(C)cc2)CC1)c1cccc([N+](=O)[O-])c1`, the EC50 [2] was 71 µM (active), the EC50 [3] was 22.9 µM (active) and the EC50 [4] was 48 µM (active).

With `CCN1CCN(CC(=O)Nc2ccc(C)c(Br)c2)CC1` the IC50 [1] was 95.7 µM (active).

For `COc1cc(CC(=O)OCC(=O)Nc2ccc(N(C)C)cc2)cc(OC)c1OC`, the IC50 [1] was 53.3 µM (active).

With `CC(=O)/C(=C\c1ccccc1F)C(=O)c1ccccc1` the AC50 [5] was 3.16 µM (inconclusive), the AC50 [13] was 5.01 µM (inconclusive) and the AC50 [8] was 6.31 µM (inconclusive).

In the case of `Cc1cnc(NC(=O)C(C)N2CCN(C)CC2)s1` (centres undefined), the IC50 [1] was 80.4 µM (active).
